Measured values taken from patent publication US20200157088A1, “BENZENE FUSED HETEROCYCLIC COMPOUND AND USE THEREOF” (TAIWANJ PHARMACEUTICALS CO., LTD., priority 2017, published 2020).
Where two headings read alike, the source gives them in different places.

Biological target: T1, autotaxin (Homo sapiens, UniProt Q13822)
T1 construct: purchased Cayman 10803
Experiment: Autotaxin inhibitor screening assay (choline release from LPC)
Format: biochemical
Protocol: Autotaxin activity was measured by choline release from LPC in presence or absence of compound.
Twenty (20) ng autotaxin (10803, Cayman, MI, USA) was incubated with 100 μM 14:0 LPC (855575P, Avanti, AL, USA) in a final volume of 100 μL buffer containing 50 mM Tris pH 8.0, 0.01% Triton X-100, 50 mM CaCl2, 1 unit/ml choline oxidase, 2 unit/ml HRP, 2 mM homovanilic acid (HVA). The relative amount of released choline was measured by HVA fluorescence in a 96-well plate. Fluorescent intensity was determined at λex/λem=320/450 nm every 60 seconds for 90 minutes with a SpectraMax i3 (Molecular Devices, CA, USA). Data analysis was performed using GraphPad Prism (GraphPad, La Jolla Calif., USA).
Inhibition %=[1−SlopeTA−SlopeBlank)/(Slopevehicle−SlopeBlank)]×100%

[1] = inhibition of autotaxin enzyme activity at 1 μM compound, 100 μM 14:0 LPC, read-out: Inhibition

| SMILES | inhibition at 1 µM [1] | inhibition at 1 µM |
| --- | --- | --- |
| CN(C(=O)OCc1cc(Cl)cc(Cl)c1)C1CCc2ccc(C3=CCN(C(=O)CN4C(=O)C=CC4=O)CC3)cc21 (centres unmarked) [Compound 27] | > 80% | – |
| CN(C(=O)CCc1cc(Cl)cc(Cl)c1)C1CCc2ccc(C3=CCN(C(=O)CN4C(=O)CSC4=S)CC3)cc21 (centres unmarked) [Compound 137] | 50 to 80% | – |
| CN(c1nc(-c2ccc(Cl)cc2)c(C#N)s1)C1CCc2ccc(N3CCN(CC(=O)N4CC(O)C4)CC3)cc21 (centres unmarked) [Compound 52] | < 50% | – |
| CN(C(=O)OCc1cc(Cl)cc(Cl)c1)C1CCc2ccc(N3CCN(C(=O)CS(C)(=O)=O)CC3)cc21 (centres unmarked) [Compound 37] | 50 to 80% | – |
| CN(C(=O)OCc1cc(Cl)cc(Cl)c1)c1noc2ccc(C3=CCN(C(=O)CN4C(=O)CSC4=S)CC3)cc12 [Compound 128] | 50 to 80% | – |
| CN(C(=O)OCc1cc(Cl)cc(Cl)c1)C1CCc2ccc(N3CCN(CC(=O)N4CC(O)C4)CC3)cc21 (centres unmarked) [Compound 33, 3,5-dichlorobenzyl (6-(4-(2-(3-hydroxyazetidin-1-yl)-2-oxoethyl)piperazin-1-yl)-2,3-dihydro-1H-inden-1-yl)(methyl)carbamate] | 50 to 80% | – |
| CN(C(=O)OCc1cc(C(F)(F)F)cc(C(F)(F)F)c1)c1noc2ccc(C3=CCN(C(=O)CN4C(=O)CSC4=S)CC3)cc12 [Compound 132] | 50 to 80% | – |
| CN(C(=O)OCc1cc(Cl)cc(Cl)c1)C1CCc2ccc(C3=CCN(CC(=O)N4CC[C@@H](O)C4)CC3)cc21 (some centres unmarked) [Compound 12] | 50 to 80% | – |
| CN(C(=O)OCc1cc(Cl)cc(Cl)c1)C1CCc2ccc(C3=CCN(CC(=O)N4CCCC4)CC3)cc21 (centres unmarked) [Compound 13] | < 50% | – |
| CN(c1nc(-c2ccc(Cl)cc2)c(C#N)s1)C1CCc2ccc(N3CCN(C(=O)CN4C(=O)CSC4=S)CC3)cc21 (centres unmarked) [Compound 54] | < 50% | – |
| CN(C(=O)OCc1cc(Cl)cc(Cl)c1)C1CCc2ccc(N3CCN(C(=O)CN4C(=O)CSC4=S)CC3)cc21 (centres unmarked) [Compound 36] | > 80% | – |
| O=C(Nc1noc2ccc(C3=CCN(C(=O)CN4C(=O)CSC4=S)CC3)cc12)OCc1cc(Cl)cc(Cl)c1 [Compound 127] | 50 to 80% | – |
| CN(C(=O)OCc1cc(Cl)cc(Cl)c1)C1CCc2ccc(C3=CCN(C(=O)CN4CCOCC4)CC3)cc21 (centres unmarked) [Compound 18] | > 80% | – |
| CCC1Cc2ccc(C3=CCN(C(=O)CN4C(=O)CSC4=S)CC3)cc2C1N(C)C(=O)OCc1cc(Cl)cc(Cl)c1 (centres unmarked) [Compound 119] | 50 to 80% | – |
| CN(C(=O)OCc1cc(C(F)(F)F)cc(C(F)(F)F)c1)C1CCc2ccc(C3=CCN(C(=O)CN4C(=O)CSC4=S)CC3)cc21 (centres unmarked) [Compound 95] | > 80% | – |
| CCC1Cc2ccc(C3=CCN(CC(=O)N4CC(O)C4)CC3)cc2C1N(C)c1nc(-c2ccc(Cl)cc2)c(C#N)s1 (centres unmarked) [Compound 60] | < 50% | – |
| CN(C(=O)OCc1cc(Cl)cc(Cl)c1)C1CCc2ccc(C3=CCN(CC(=O)N(C)S(C)(=O)=O)CC3)cc21 (centres unmarked) [Compound 21] | 50 to 80% | – |
| CN(C(=O)OCc1cc(Cl)cc(Cl)c1)C1CCc2ccc(C3=CCN(C(=O)CS(C)(=O)=O)CC3)cc21 (centres unmarked) [Compound 22] | > 80% | – |
| CCN(C(=O)OCc1cc(C(F)(F)F)cc(C(F)(F)F)c1)c1noc2ccc(C3=CCN(C(=O)CN4C(=O)CSC4=S)CC3)cc12 [Compound 133] | 50 to 80% | – |
| CN(C(=O)OCc1cc(Cl)cc(C(F)(F)F)c1)C1CCc2ccc(C3=CCN(C(=O)CN4C(=O)CSC4=S)CC3)cc21 (centres unmarked) [Compound 93] | > 80% | – |
| CN(C(=O)OCc1cc(Cl)cc(Cl)c1)C1CCc2ccc(C3=CCN(CC(=O)N4CCN(S(C)(=O)=O)CC4)CC3)cc21 (centres unmarked) [Compound 17] | 50 to 80% | – |

| SMILES | inhibition at 1 µM [1] | inhibition at 1 µM |
| --- | --- | --- |
| Cc1oc2ccc(C3=CCN(C(=O)CN4C(=O)CSC4=S)CC3)cc2c1N(C)C(=O)OCc1cc(C(F)(F)F)cc(C(F)(F)F)c1 [Compound 102] | > 80% | – |
| CN(C(=O)OCc1cc(Cl)cc(Cl)c1)C1CCc2ccc(C3=CCN(C(=O)CN4CCN(S(C)(=O)=O)CC4)CC3)cc21 (centres unmarked) [Compound 25] | > 80% | – |
| CN(C(=O)OCc1cc(Cl)cc(Cl)c1)C1CCc2ccc(C3=CCN(CC(=O)N4CC(O)C4)CC3)cc21 (centres unmarked) [Compound 8, 3,5-dichlorobenzyl(6-(1-(2-(3-hydroxyazetidin-1-yl)-2-oxoethyl)-1,2,3,6-tetrahydropyridin-4-yl)-2,3-dihydro-1H-inden-1-yl)(methyl)carbamate] | 50 to 80% | – |
| CN(C(=O)OCc1cc(Cl)cc(Cl)c1)C1CCCc2ccc(N3CCN(CC(=O)N4CC(O)C4)CC3)cc21 (centres unmarked) [Compound 38] | < 50% | – |
| CN(C(=O)OCc1cc(Cl)cc(Cl)c1)C1CCc2ccc(C3=CCN(CC(=O)N4CCCC(O)C4)CC3)cc21 (centres unmarked) [Compound 19] | < 50% | – |
| CCN(C(=O)OCc1cc(Cl)cc(Cl)c1)C1CCc2ccc(C3=CCN(C(=O)CN4C(=O)CSC4=S)CC3)cc21 (centres unmarked) [Compound 130] | > 80% | – |
| CN(C(=O)OCc1cc(Cl)cc(Cl)c1)C1CCc2ccc(C3=CCN(C(=O)CN4C(=O)CCC4=O)CC3)cc21 (centres unmarked) [Compound 26] | < 50% | – |
| CN(c1nc(-c2ccc(F)cc2)c(C#N)s1)C1CCc2ccc(N3CCN(CC(=O)N4CC(O)C4)CC3)cc21 (centres unmarked) [Compound 50, 4-(4-fluorophenyl)-2-((6-(4-(2-(3-hydroxyazetidin-1-yl)-2-oxoethyl)piperazin-1-yl)-2,3-dihydro-1H-inden-1-yl)(methyl)amino)thiazole-5-carbonitrile] | < 50% | – |
| CN(C(=O)OCc1cc(Cl)cc(Cl)c1)C1CCc2ccc(C3=CCN(C(=O)CN4CC(O)C4)CC3)cc21 (centres unmarked) [Compound 24] | < 50% | – |
| Cc1cc(Cl)cc(COC(=O)N(C)C2CCc3ccc(C4=CCN(C(=O)CN5C(=O)CSC5=S)CC4)cc32)c1 (centres unmarked) [Compound 92] | – | > 80% |
| CN(CCOc1ccc(F)cc1F)C1CCc2ccc(N3CCN(CC(=O)N4CC(O)C4)CC3)cc21 (centres unmarked) [Compound 73] | < 50% | – |
| CN(C(=O)OCc1cc(F)cc(Cl)c1)C1CCc2ccc(C3=CCN(C(=O)CN4C(=O)CSC4=S)CC3)cc21 (centres unmarked) [Compound 97] | – | > 80% |
| CN(c1nc(-c2ccc(Cl)cc2)c(C#N)s1)C1CCCc2ccc(N3CCN(CC(=O)N4CC(O)C4)CC3)cc21 (centres unmarked) [Compound 51] | – | < 50% |
| CN(CCOc1ccc(F)cc1F)C1CCCc2ccc(N3CCN(CC(=O)N4CC(O)C4)CC3)cc21 (centres unmarked) [Compound 74] | < 50% | – |
| CCC1Cc2ccc(C3=CCN(C(=O)CS(C)(=O)=O)CC3)cc2C1N(C)C(=O)OCc1cc(Cl)cc(Cl)c1 (centres unmarked) [Compound 121] | < 50% | – |
| CN(C(=O)OCc1cc(Cl)cc(Cl)c1)C1CCc2ccc(C3=CCN(CC(=O)NS(C)(=O)=O)CC3)cc21 (centres unmarked) [Compound 20] | 50 to 80% | – |
| CN(c1nc(-c2cc(Cl)cc(Cl)c2)c(C#N)s1)C1CCc2ccc(C3=CCN(CC(=O)N4CC(O)C4)CC3)cc21 (centres unmarked) [Compound 59] | < 50% | – |
| CCN(CC)C(=O)CN1CC=C(c2ccc3c(c2)C(N(C)C(=O)OCc2cc(Cl)cc(Cl)c2)CC3)CC1 (centres unmarked) [Compound 14] | < 50% | – |
| CN(C(=O)OCc1cc(Cl)cc(Cl)c1)C1CCc2ccc(C3=CCN(CC(=O)N4CCC(=O)CC4)CC3)cc21 (centres unmarked) [Compound 11] | – | 50 to 80% |
| CN(C(=O)OCc1cc(Cl)cc(Cl)c1)C1CCc2ccc(C3=CCN(CC(=O)N4CCS(=O)(=O)CC4)CC3)cc21 (centres unmarked) [Compound 16] | 50 to 80% | – |
